# Test results: US20260251650A1, “LATERAL FLOW DEVICE FOR […]'S DISEASE USING THE T14 PEPTIDE” (Neuro-Bio Ltd, priority 2022, published 2026)
# How the values were obtained:
# [1] = test system: anti-T14 antibody 40 nm gold conjugates; test: Inhibition lateral flow test (half dipstick), peptide dotted on membrane; type: binding, rabbit; settings: peptide dotted at 1, 0.5 and 0.25 mg/ml on CN180 membrane, FIG. 10
# Procedure: (§1) The detector reagent was a 40 nm gold particle which is passively conjugated to the antibodies. Conjugates were prepared for: AB16 (rabbit polyclonal), AB117 (rabbit monoclonal) and AB104 (rabbit monoclonal).
# (§2) In this format, a gold conjugate is in liquid form (in the well) rather than dry enabling high throughput of the test conditions. The test line is “dotted” onto the membrane by pipette to facilitate evaluation of a range of conditions.
# The nitrocellulose membrane was CN180.
# (§3) • A) Inhibition Assay: T14 peptide • T30 peptide • B) Sandwich Assay: Rabbit polyclonal, AB16 • Rabbit monoclonal, AB117 • Rabbit monoclonal, AB104 • Rabbit monoclonal, AB102
# Peptide (T14 or T30) was diluted to 1, 0.5 and 0.25 mg/ml in deionised water. The peptide was “dotted” onto CN180 nitrocellulose membrane (1 μl at each concentration) and the membrane dried for 15 minutes at 37° C. The goat anti-rabbit antibody was applied to the membrane as a control line.
# • (i) 20 μl gold conjugate (neat) and 20 μl TBST (Tris buffered saline 1% Tween 20) added to Well 1; • (ii) The dipstick was added to Well 1; • (iii) The dipstick was run to completion (no liquid remaining); and • (iv) The dipstick was added to Well 2 containing 20 μl TBST only to wash the test strip.
# [2] = test system: anti-T14 antibodies (conjugate and test line); test: Sandwich lateral flow test (half dipstick), peptide detection; type: binding, rabbit; settings: peptide at 0.1 mg/ml, FIG. 11
# Procedure: as §1, §2, §3
# Each antibody was “dotted” onto CN180 membrane (1 μl neat, i.e. 1 mg/ml, concentration) and the membrane dried for 15 mins at 37° C. The goat anti-rabbit antibody was applied to the membrane as a control line. Conjugate and test line antibody combinations were then evaluated in a matrix study in the lateral flow format.
# • (i) 10 μl peptide (either T14 or T30 at 0.1 mg/ml) and 10 μl TBST (Tris buffered saline 1% Tween 20) added to Well 1; • (ii) The dipstick was added to Well 1; • (iii) The dipstick was run to completion (no liquid remaining); • (iv) The dipstick was added to Well 2 containing 20 μl conjugate; • (v) The dipstick was run to completion (no liquid remaining); and • (vi) The dipstick was added to Well 3 containing 20 μl TBST.
Sequence,detection of peptide by inhibition LFT [1],detection of peptide by sandwich LFT [2]
"KAEFHRWSSYMVHWKNQFDHYSKQDRCSDL (KAEFHRWSSYMVHWKNQFHDYSKQDRCSDL; listed as Homo sapiens) [T30, last 30 amino acid residues of tailed acetylcholinesterase]",able to detect,able to detect
"AEFHRWSSYMVHWK (listed as Homo sapiens) [T14, 14 amino acid peptide derived from the C-terminus of acetylcholinesterase; biomarker]",able to detect,able to detect
